For orientation: melting point means the temperature, or range, at which the solid turns liquid. In the case of `CCNC1CC=C(c2c[nH]c3ccc(NC(=N)c4cccs4)cc23)CC1` (stereo unspecified), the melting point lay within 190 to 192 °C. Regarding `CCN(CC)c1ccc(C2(c3ccc(N(C)C)cc3N(C)C)OC(=O)c3ccccc32)cc1` (stereo unspecified), the melting point is 168 to 170 °C. Consider `CCc1nnc2c(NC3CCCC3)nc3ccccc3n12`, for which the melting point fell in the range of 166 to 168 °C.

Compound `CC(C)(C)OC(=O)N1CCCC(c2nc(-c3ccncc3)c(-c3ccc(F)cc3)[nH]2)C1` (stereo unspecified) displayed a melting point of 193 to 194 °C. Take `COc1ccc(C(=O)NS(=O)(=O)C=Cc2ccc(Cl)c(Cl)c2)cc1OC`: the melting point lay within 145 to 147 °C. As to `Cc1c(NC(=O)CC(C)(C)C)cc2c(c1C)OC(C)(C)C2(O)CCc1ccccc1` (stereo unspecified), the melting point was 99 to 100 °C.

With `O=C(NCC(=O)N1[C@@H](c2ccccc2O)CC[C@H]1c1ccccc1)Nc1cccc(C(=O)O)c1` (racemic), the melting point came out at 160 °C. The figure for `CCOC(=O)[C@@H](CO)NCc1c(N)cccc1Cl` is 73 to 75 °C. The figure for `CC(C)Oc1cc(-n2c(=O)c(F)c(CF)n(C)c2=O)c(F)cc1Cl` is 79 to 81 °C; for `Cn1cncc1C(O)c1ccc2c(c1)c(-c1cccc(Cl)c1)cc(=O)n2C` (stereo unspecified) it is 167 °C; for `COc1ccc(Nc2ncccc2NS(=O)(=O)c2ccc(OC)cc2)cc1` it is 145 to 147 °C.

`CN=C(NC#N)N1CCc2[nH]cnc2C1`: the melting point was 240 °C. `CCc1noc(C)c1-c1[nH]c2ccccc2c1C(=O)CCC(=O)N(C)C` returned a melting point of 144 to 148 °C. The figure for `Cc1c(C)c2c(c(C)c1N)CC(C)(CN1CCC(c3ccccc3)CC1)O2` (stereo unspecified) is 112 to 113 °C; for `CCOc1ccccc1N1CCN(CCCC2CN(C)C(=O)O2)CC1` (stereo unspecified) it is 79 to 81 °C.

Regarding `Cc1nc(O)c(C#N)c(C)c1Br`, the melting point was 254 to 262 °C. Consider `O=C(NC(=NCCCc1c[nH]cn1)NCCSCc1csc(N=C2NCCCN2)n1)c1ccccc1`, for which the melting point lay in the range of 175 to 176 °C. Compound `Cc1ccccc1NC(=O)Nc1ccc(CN)cc1` returned a melting point of 142 to 143 °C.

On to `CC(=O)NC(C)c1ccc(CN2CCN(c3ccc(F)cc3)CC2)cc1` (stereo unspecified), for which the melting point fell in the range of 101 to 103 °C. The figure for `CCOC(=O)c1ccc2c(c1)OC(c1cc(Cl)cc(Cl)c1)(c1cc(Cl)cc(Cl)c1)O2` is 89 °C.

Turning to `O=C(O)CCC(=O)Nc1ccc(Nc2ccccc2)cc1`, the melting point lay in the range of 175 to 176 °C. `CC(C)C(C)(C)N1N=C([O-])O[NH2+]1` registered a melting point of 38 °C. The figure for `CCn1c2c(c3ccccc31)C(=O)NCC2` is 203 to 204 °C; for `NC(=O)c1cccc(-c2ccc(F)c3cc(Cc4cc(F)cc(Cl)c4)sc23)c1` it is 168 to 169 °C. Next, `Cn1ncnc1COc1nn2c(-c3ccccc3F)nncc2c1-c1ccc(F)cc1`: 192 °C; `Cc1ccc(OC2CCN(C(=O)C(=O)Nc3ccc4c(c3)OCC(=O)N4)CC2)cc1`: 226 to 228 °C. `Cc1nc(-c2ccc(S(N)(=O)=O)c(F)c2)c(-c2ccc(-c3cscn3)cc2)o1` yielded a melting point of 192 to 194 °C. For `COC(=O)CC(CC(=O)OC)Sc1cc(OC)ccc1[N+](=O)[O-]`, the melting point is 91 °C. With `CC1CCc2c3c(cc4ccccc24)C(=O)C(C(=O)O)CN31` (stereo unspecified), the melting point was 270 to 273 °C. In turn, `COc1cc2c(=O)oc(=O)[nH]c2c(OC)c1OC` showed a melting point of 247 °C. Next, `CCNC(=O)n1ccc(O)cc1=O`: 272 °C; `Cn1c(C=NNCCO)cnc1[N+](=O)[O-]`: 138 to 140 °C; `CCOC(=O)C(Cl)=Cc1cccc([N+](=O)[O-])c1`: 75 °C.

`CCc1ccccc1Cn1cc(-c2cn(C3CC(O)C(CO)O3)c(=O)[nH]c2=O)nn1` (stereo unspecified) returned a melting point of 169 to 172 °C.

`C#CCc1c(-c2ccccc2)nc(C)n(C)c1=O`: the melting point was 142 to 144 °C. The figure for `C=CCNc1nc(NCC=C)c2cc(Cl)ccc2n1` is 78 to 79 °C.

These data come from a melting point compilation (Tetko et al.; mined from patent text by program, amines drawn as free bases though some values may be those of a salt).
